According to PubChem BioAssay AID248 (DTP/NCI, 2004):
Where “and” joins values, the source holds several entries; their conditions need not be identical. Equal values may be shown once. Toxic doses and inconclusive results are not listed. No stated cut-off is given here; in the data, active means T/C of 150% or more; inactive means T/C below 125%.

Test system: L1210 leukemia ip in BDF1 mice, survival T/C
Assay: NCI In Vivo Anticancer Drug Screen. Data for tumor model L1210 Leukemia (intraperitoneal) in B6D2F1 (BDF1) mice
Conditions: endpoint: mean survival time, higher = longer survival
Method in brief: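 Transplanted-tumor mice were given test agent; controls received vehicle only. Survival readings from the two groups were divided (treated over control).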

[1] = dose: 100.0 mg/kg/injection, schedule: Q04DX002 (ip), vehicle: Klucel (hydroxypropylcellulose) (HPC)
[2] = dose: 200.0 mg/kg/injection, schedule: Q04DX002 (ip), vehicle: Klucel (hydroxypropylcellulose) (HPC)
[3] = dose: 400.0 mg/kg/injection, schedule: Q04DX002 (ip), vehicle: Klucel (hydroxypropylcellulose) (HPC)
[4] = dose: 100.0 mg/kg/injection, schedule: Q01DX001 (ip), vehicle: Klucel (hydroxypropylcellulose) (HPC)
[5] = dose: 200.0 mg/kg/injection, schedule: Q01DX001 (ip), vehicle: Klucel (hydroxypropylcellulose) (HPC)
[6] = dose: 400.0 mg/kg/injection, schedule: Q01DX001 (ip), vehicle: Klucel (hydroxypropylcellulose) (HPC)
[7] = dose: 100.0 mg/kg/injection, schedule: Q04DX003 (ip), vehicle: saline with Tween-80
[8] = dose: 200.0 mg/kg/injection, schedule: Q04DX003 (ip), vehicle: saline with Tween-80
[9] = dose: 400.0 mg/kg/injection, schedule: Q04DX003 (ip), vehicle: saline with Tween-80
[10] = dose: 100.0 mg/kg/injection, schedule: Q04DX003 (ip), vehicle: saline
[11] = dose: 200.0 mg/kg/injection, schedule: Q04DX003 (ip), vehicle: saline
[12] = dose: 100.0 mg/kg/injection, schedule: Q04DX003 (ip), vehicle: Klucel (hydroxypropylcellulose) (HPC)
[13] = dose: 200.0 mg/kg/injection, schedule: Q04DX003 (ip), vehicle: Klucel (hydroxypropylcellulose) (HPC)
[14] = dose: 400.0 mg/kg/injection, schedule: Q04DX003 (ip), vehicle: Klucel (hydroxypropylcellulose) (HPC)
[15] = dose: 100.0 mg/kg/injection, schedule: Q01DX009 (ip), vehicle: saline
[16] = dose: 400.0 mg/kg/injection, schedule: Q04DX003 (ip), vehicle: saline
[17] = dose: 50.0 mg/kg/injection, schedule: Q01DX009 (ip), vehicle: Klucel (hydroxypropylcellulose) (HPC)
[18] = dose: 100.0 mg/kg/injection, schedule: Q01DX009 (ip), vehicle: Klucel (hydroxypropylcellulose) (HPC)
[19] = dose: 200.0 mg/kg/injection, schedule: Q01DX009 (ip), vehicle: Klucel (hydroxypropylcellulose) (HPC)

Measured: T/C

O=C(O)c1ccc(C(=O)O)o1
inactive: [1] 95 % of control | [2] 91 % of control | [3] 91 % of control

CC(=O)Nc1cccc(OCCOc2ccc([N+](=O)[O-])cc2)c1
inactive: dose: 100.0 mg/kg/injection, schedule: Q01DX001 (ip), vehicle: carboxymethylcellulose (CMC) 92 % of control | dose: 200.0 mg/kg/injection, schedule: Q01DX001 (ip), vehicle: carboxymethylcellulose (CMC) 92 % of control | dose: 400.0 mg/kg/injection, schedule: Q01DX001 (ip), vehicle: carboxymethylcellulose (CMC) 90 % of control

CCOc1ccc(-n2c(=O)c(N=Nc3ccc(Cl)cc3)c(O)n(-c3ccc(C)cc3)c2=S)cc1
inactive: [4] 100 % of control | [5] 107 % of control | [6] 100 % of control

Cc1ccc(O)c(C(c2cc(S(=O)(=O)O)c(O)cc2C)N2CN(C(c3cc(S(=O)(=O)O)c(O)cc3C)c3cc(C)ccc3O)C2=O)c1 (stereo not given)
inactive: dose: 100.0 mg/kg/injection, schedule: Q04DX002 (ip), vehicle: saline with Tween-80 101 % of control | dose: 200.0 mg/kg/injection, schedule: Q04DX002 (ip), vehicle: saline with Tween-80 93 % of control

COC(=O)C1C2C=CC(C3CCC23)C1C(=O)OC (stereo not given)
inactive: [7] 92 % of control | [8] 91 % of control | [9] 94 % of control

O=C(c1ccc([N+](=O)[O-])cc1)c1ccn[nH]1
inactive: [4] 103 % of control | [5] 99 % of control | [6] 94 % of control

CN(C)N=C1CCC(=NN(C)C)CC1
inactive: dose: 12.5 mg/kg/injection, schedule: Q04DX003 (ip), vehicle: saline 100 % of control | dose: 25.0 mg/kg/injection, schedule: Q04DX003 (ip), vehicle: saline 100 % of control | dose: 50.0 mg/kg/injection, schedule: Q04DX003 (ip), vehicle: saline 94 % of control | [10] 100 % of control | [11] 99 % of control

N#C/C(=C\c1cccn1Cc1ccc2c(c1)OCO2)C(N)=O
inactive: dose: 25.0 mg/kg/injection, schedule: Q04DX002 (ip), vehicle: Klucel (hydroxypropylcellulose) (HPC) 101 % of control | dose: 50.0 mg/kg/injection, schedule: Q04DX002 (ip), vehicle: Klucel (hydroxypropylcellulose) (HPC) 101 % of control | [1] 96 % of control

O=C(Nc1ccccc1C(=O)c1ccccn1)c1ccccc1
inactive: [12] 104 % of control | [13] 98 % of control | [14] 101 % of control

Cc1ccc(N)c(Br)c1
inactive: dose: 50.0 mg/kg/injection, schedule: Q01DX009 (ip), vehicle: saline with Tween-80 99 % of control | dose: 100.0 mg/kg/injection, schedule: Q01DX009 (ip), vehicle: saline with Tween-80 97 % of control

COC(=O)CCC(C)C1CCC2C3C(O)CC4CC(OC(C)=O)CCC4(C)C3CC(O)C12C (stereo not given)
inactive: dose: 50.0 mg/kg/injection, schedule: Q01DX009 (ip), vehicle: carboxymethylcellulose (CMC) 102 % of control and 103 % of control | dose: 50.0 mg/kg/injection, schedule: Q04DX003 (ip), vehicle: carboxymethylcellulose (CMC) 95 % of control | dose: 100.0 mg/kg/injection, schedule: Q01DX009 (ip), vehicle: carboxymethylcellulose (CMC) 95 % of control and 98 % of control | dose: 100.0 mg/kg/injection, schedule: Q04DX002 (ip), vehicle: carboxymethylcellulose (CMC) 96 % of control and 101 % of control | dose: 100.0 mg/kg/injection, schedule: Q04DX003 (ip), vehicle: carboxymethylcellulose (CMC) 95 % of control | dose: 200.0 mg/kg/injection, schedule: Q01DX009 (ip), vehicle: carboxymethylcellulose (CMC) 88 % of control and 92 % of control | dose: 200.0 mg/kg/injection, schedule: Q04DX002 (ip), vehicle: carboxymethylcellulose (CMC) 96 % of control and 91 % of control | dose: 200.0 mg/kg/injection, schedule: Q04DX003 (ip), vehicle: carboxymethylcellulose (CMC) 88 % of control | dose: 400.0 mg/kg/injection, schedule: Q04DX002 (ip), vehicle: carboxymethylcellulose (CMC) 86 % of control and 91 % of control

CCC(C)(C)NC(N)=O
inactive: [1] 99 % of control | [2] 92 % of control | [3] 96 % of control

CC(C1SCCCS1)C1SCCCS1
inactive: dose: 37.5 mg/kg/injection, schedule: Q04DX002 (ip), vehicle: saline with Tween-80 92 % of control | dose: 75.0 mg/kg/injection, schedule: Q04DX002 (ip), vehicle: saline with Tween-80 92 % of control | dose: 150.0 mg/kg/injection, schedule: Q04DX002 (ip), vehicle: saline with Tween-80 98 % of control | dose: 300.0 mg/kg/injection, schedule: Q04DX002 (ip), vehicle: saline with Tween-80 95 % of control

CCOC(=S)Nc1ccccc1
inactive: [1] 103 % of control | [2] 90 % of control | [3] 107 % of control

C[P+]1(C)CC2OC2C1 (stereo not given)
inactive: dose: 12.5 mg/kg/injection, schedule: Q01DX009 (ip), vehicle: saline 91 % of control | dose: 25.0 mg/kg/injection, schedule: Q01DX009 (ip), vehicle: saline 102 % of control | dose: 50.0 mg/kg/injection, schedule: Q01DX009 (ip), vehicle: saline 94 % of control | [15] 91 % of control

CCOC(/C=C(\C)C(C)=O)OCC
inactive: [10] 97 % of control | [11] 98 % of control | [16] 95 % of control

CONP(=O)(NOC)c1ccccc1
inactive: dose: 100.0 mg/kg/injection, schedule: Q01DX001 (ip), vehicle: saline 103 % of control | dose: 200.0 mg/kg/injection, schedule: Q01DX001 (ip), vehicle: saline 95 % of control | dose: 400.0 mg/kg/injection, schedule: Q01DX001 (ip), vehicle: saline 90 % of control

CN(C)N=C(c1ccccc1)c1ccccc1
inactive: [17] 86 % of control | [18] 97 % of control

O=C(O)/C(=C\c1ccncc1)c1cccc2ccccc12
inactive: [7] 100 % of control | [19] 105 % of control | [8] 98 % of control | dose: 400.0 mg/kg/injection, schedule: Q01DX009 (ip), vehicle: Klucel (hydroxypropylcellulose) (HPC) 102 % of control | [9] 91 % of control

O=C(OCC1OC(n2c(=O)[nH]c3scnc3c2=O)C(OC(=O)c2ccccc2)C1OC(=O)c1ccccc1)c1ccccc1 (stereo not given)
inactive: dose: 100.0 mg/kg/injection, schedule: Q01DX005 (ip), vehicle: saline 93 % of control | dose: 200.0 mg/kg/injection, schedule: Q01DX005 (ip), vehicle: saline 86 % of control

COc1ccc(NC(=O)CC=C(C)C)nn1
inactive: [17] 100 % of control | [18] 100 % of control | [12] 102 % of control | [19] 91 % of control | [13] 104 % of control | [14] 110 % of control

CC(=O)Nc1ccc(SSSc2ccc(NC(C)=O)cc2)cc1
inactive: dose: 1.56 mg/kg/injection, schedule: Q01DX009 (ip), vehicle: water 100 % of control | dose: 3.12 mg/kg/injection, schedule: Q01DX009 (ip), vehicle: water 92 % of control | dose: 6.25 mg/kg/injection, schedule: Q01DX009 (ip), vehicle: water 96 % of control | dose: 12.5 mg/kg/injection, schedule: Q01DX009 (ip), vehicle: water 91 % of control | dose: 25.0 mg/kg/injection, schedule: Q01DX009 (ip), vehicle: water 94 % of control and 88 % of control | dose: 200.0 mg/kg/injection, schedule: Q01DX009 (ip), vehicle: water 92 % of control

CC(=O)N(CCC#N)CCC#N
inactive: [10] 95 % of control | [11] 96 % of control | [16] 93 % of control

N#CSCN1C(=O)C2CC=CCC2C1=O (stereo not given)
inactive: dose: 25.0 mg/kg/injection, schedule: Q04DX003 (ip), vehicle: saline with Tween-80 97 % of control

COc1cc(C=NC(CO)C(=O)O)ccc1O.COc1cc(C=NC(CO)C(=O)O)ccc1O.[Fe] (stereo not given)
inactive: [15] 92 % of control | [10] 88 % of control | dose: 200.0 mg/kg/injection, schedule: Q01DX009 (ip), vehicle: saline 92 % of control | [11] 95 % of control | dose: 400.0 mg/kg/injection, schedule: Q01DX009 (ip), vehicle: saline 95 % of control | [16] 93 % of control
